Article PMC3141655 (BMC Biochemistry, 2011)
Entries after “also recorded” stand apart in the source; their conditions may differ. Where two headings read alike, the source gives them in different places.

Assays:
OASS [1] = target: OASS; set-up: method as in PMID 7547955; settings: earlier study; read-out: Kd, reported value; cited from earlier work
[2] = target: T1, StOASS (O-acetylserine sulfhydrylase) (Salmonella typhimurium, UniProt P0A1E3); assay: PLP fluorescence titration of ligands with StOASS; format: binding; set-up: His tag (N); made in house; host or cells: E. coli BL21(DE3), pET28a(+); settings: for change of OASS PLP fluorescence upon addition of ligand: up to ~1 mM ligand
Experimental: Titrations of ligands with StOASS were examined by monitoring changes in the active site pyridoxal 5'phosphate (PLP) fluorescence of OASS using a Varian spectrofluorometer. The excitation and emission wavelengths for monitoring PLP signal change upon ligand binding were 412 nm and 507 nm respectively. All experiments were done at 23.0 ± 1°C. Slit widths were set to 5 nm for all experiments and PMT voltage was adjusted to get maximum signal for a given protein concentration. Initial readings of both the sample, Fsamp,0 and buffer, Fbuf,0 were taken, with F0 = Fsamp,0-Fbuf,0 defined as the initial fluorescence of the sample. The sample cuvette was then titrated with aliquots of ligands and mixed, equilibrated for 2-5 minutes before measurement. Data points from five such measurements were averaged to obtain Fave,i. The relative fluorescence quenching upon ligand binding is defined as Qobs,i = (F0-Fobs,i)/F0. All measurements were corrected for dilution, and inner filter effects.
Binding of ligands to OASS was analyzed to obtain the equilibrium binding constant, Kobs = [PL]/[P]*[L], using a single or two independent site binding models (eqn 1)(1) [drawing 1]
Where n, number of binding sites, Qobs, observed fluorescence quenching and Qmax, the maximum fluorescence quenching at saturation.

OASS (StOASS and HiOASS) = format: biochemical; settings: purified enzymes; read-out: Km,OAS
OASS [3] = target: OASS; set-up: method as in PMID 10995767; settings: from Kext, single-wavelength stopped flow; cited from earlier work
[4] = target: T1, StOASS (O-acetylserine sulfhydrylase)
Experimental: (§1) Isothermal titration calorimetry (ITC) experiments were performed using a Nano-ITC (TA-Instruments). OASS was dialyzed at 25°C in 20 mM Tris buffer (pH 8.0) and 50 mM NaCl. Buffer solutions were degassed at room temperature prior to use. […] The heat of dilution for each injection was determined using buffer in the cell. Data obtained from the titration of ligands with OASS were analyzed using either a two-sites binding model (eqn 2)(2) [drawing 2]
(§2) Qi^tot is total heat after the i^th injection, V0 is the volume of calorimetric cell, K1 and K2 are the observed equilibrium constants for each site, and ΔH1 and ΔH2 are the corresponding enthalpy changes. Estimates of Kobs and ΔH were obtained by fitting the experimental data to the model and the best-fit parameters were selected based on the lowest Chi-squared values.

[5] = target: HiOASS (O-acetylserine sulfhydrylase) (Haemophilus influenzae, UniProt P45040)
Experimental: as §1, §2

[6] = 25°C, 20 mM Tris pH 8.0, 50 mM NaCl

HiOASS (O-acetylserine sulfhydrylase), sequence (P45040 whole entry): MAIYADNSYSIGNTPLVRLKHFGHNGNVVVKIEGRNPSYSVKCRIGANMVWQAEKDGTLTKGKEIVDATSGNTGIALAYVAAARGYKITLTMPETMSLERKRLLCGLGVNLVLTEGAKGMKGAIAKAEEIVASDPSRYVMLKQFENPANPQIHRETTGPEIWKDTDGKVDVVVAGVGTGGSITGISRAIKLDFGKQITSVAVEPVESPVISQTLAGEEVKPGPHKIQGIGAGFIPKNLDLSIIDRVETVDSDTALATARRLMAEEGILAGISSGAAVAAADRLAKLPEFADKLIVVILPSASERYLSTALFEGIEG
T1 sequence (P0A1E3 whole entry): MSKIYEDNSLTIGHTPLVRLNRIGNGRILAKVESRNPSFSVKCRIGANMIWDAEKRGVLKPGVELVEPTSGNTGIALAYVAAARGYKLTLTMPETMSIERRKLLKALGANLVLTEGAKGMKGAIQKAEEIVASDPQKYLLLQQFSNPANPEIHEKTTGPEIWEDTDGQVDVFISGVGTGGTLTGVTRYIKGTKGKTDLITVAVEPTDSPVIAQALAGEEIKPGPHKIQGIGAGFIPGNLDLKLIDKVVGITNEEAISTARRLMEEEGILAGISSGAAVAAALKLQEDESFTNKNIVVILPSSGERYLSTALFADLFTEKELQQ

| SMILES | Kd (OASS [1]) [mM] | change of OASS PLP fluorescence upon addition of ligand ([2]; pH 8.0 (20 mM Tris, 20 mM NaCl)) | change of OASS PLP fluorescence upon addition of ligand ([2]; pH 9.5 (20 mM Tris, 20 mM NaCl)) | Kd ([2]; pH 9.5, 20 mM Tris, 20 mM NaCl, read-out: Kd (equilibrium dissociation constant)) [mM] | Km (OASS (StOASS and HiOASS)) [µM] | Kd (OASS [3]) [mM] | Kd [4] [mM] | contribution of enthalpy to total binding free energy ([4]; 25°C) | apparent binding constant [4, 6] | ΔG [4, 6] [kJ/M] | Kd [5] [mM] | contribution of enthalpy to total binding free energy ([5]; 25°C) | binding constant [5, 6] | enthalpy value [5, 6] [kJ/M] | ΔG [5, 6] [kJ/M] |
| --- | --- | --- | --- | --- | --- | --- | --- | --- | --- | --- | --- | --- | --- | --- | --- |
| N[C@@H](CO)C(=O)O [L-serine] | 4.2 | does not change OASS fluorescence; also recorded: does not change PLP | leads to changes in the OASS fluorescence; also recorded: increases the PLP fluorescence | ~3.7 |  |  |  |  |  |  |  |  |  |  |  |
| CC(=O)OC[C@H](N)C(=O)O [OAS, O-acetylserine] |  |  |  |  | 900 to 1400 | ~5.6 | 0.56 | less than 3% | ~ 1.8 ± 0.6 × 10^3 M^-1 | -17.6 | ~0.77 | less than 3% | ~ 1.3 ± 0.4 × 10^3 M^-1 | 0.45 ± 0.3 | -16.9 |
